The results in this text go back to patent US20110039783A1, “PEPTIDE HAVING HYPOTENSIVE ACTIVITY” (DAIICHI SANKYO COMPANY LIMITED, priority 2007, published 2011).

Experiment [1] relates to blood pressure of anesthetized Sprague-Dawley IGS male rats. Description: Hypotensive activity in anesthetized rats, invasive blood pressure measurement after intravenous administration. Conditions: for Hypotensive activity (dose/rat) 10 nmol / Hypotensive activity (dose/rat) 30 nmol / Hypotensive activity (dose/rat) 100 nmol / hypotensive activity (in words): anesthetized rats; for Hypotensive activity (dose/rat) 10 nmol / Hypotensive activity (dose/rat) 30 nmol / Hypotensive activity (dose/rat) 100 nmol: intravenous; for Hypotensive activity (dose/rat) 10 nmol: 10 nmol/rat; for Hypotensive activity (dose/rat) 30 nmol: 30 nmol/rat; for Hypotensive activity (dose/rat) 100 nmol: 100 nmol/rat; for dose dependence of hypotensive activity: anesthetized rats, 10, 30, 100 nmol/rat; for hypotensive activity (in words): Table 1 and FIG. 1, 10 or 30 nmol/rat. The class given is in vivo, rat.

Experiment [2] deals with blood pressure of awake Sprague-Dawley IGS male rats. Briefly: Hypotensive activity on awake rats. The class given is in vivo, rat. Details: key to Hypotensive activity (dose/rat) 10 nmol / Hypotensive activity (dose/rat) 30 nmol: Extremely strong activity (+++): A decrease in systolic blood pressure is 30 mmHg or more, and the time required for recovery is 5 minutes or more.; Strong activity (++): A decrease in systolic blood pressure is 20 mmHg or more and less than 30 mmHg, or the time required for recovery is less than 5 minutes.; Activity observed (+): A decrease in systolic blood pressure is less than 20 mmHg.; Activity not observed (−). Particulars: for Hypotensive activity (dose/rat) 10 nmol / Hypotensive activity (dose/rat) 30 nmol / Hypotensive activity (dose/rat) 100 nmol: Table 4, intravenous; for Hypotensive activity (dose/rat) 10 nmol: 10 nmol/rat; for Hypotensive activity (dose/rat) 30 nmol: 30 nmol/rat; for Hypotensive activity (dose/rat) 100 nmol: 100 nmol/rat. The procedure:
50 mg/kg pentobarbital sodium was intraperitoneally administered to 8- to 10-week-old Sprague-Dawley IGS male rats (Charles River Laboratories Japan, Inc.) for anesthesia. Thereafter, a jugular vein cannula (Silascon 0.5-1.0) was inserted into each rat for use in peptide administration, and a carotid artery cannula (PE50) was inserted into each rat for use in the measurement of blood pressure. At least 3 hours after the surgery, it was confirmed that the rats were awoken from the anesthesia based on general conditions such as the posture, respiration, and the like of the rats. Thereafter, the rats were subjected to the experiment.
The carotid artery cannula was connected with a pressure transducer (PE23XL; manufactured by Nihon Kohden Corporation), and an apparatus formed by incorporating a blood pressure measurement unit (AP-641G; manufactured by Nihon Kohden Corporation) and an instantaneous heart rate measurement unit (AT-601G; manufactured by Nihon Kohden Corporation) into a multi-purpose preamplifier (RP-6004; manufactured by Nihon Kohden Corporation) was used to record the blood pressure and heart rate of each rat. The blood pressure was calibrated using a mercury manometer included in a stand-type electromanometer (MP-25S; manufactured by Nihon Kohden Corporation). The recording paper was adjusted, such that 20 mm or 40 mm on the recording paper corresponded to 100 mmHg. A solvent in which each peptide had been dissolved was used as a negative control in blood pressure fluctuation.
Each peptide was dissolved in a concentration of 1 mM in a 5% mannitol solution to prepare a peptide solution. Thereafter, depending on dose, it was diluted with a 5% mannitol solution. In the case of the dose of 10 nmol/rat, a 1 mM peptide solution was 30 times diluted, and 300 μL of the diluted solution was administered. In the case of the dose of 30 nmol/rat, a 1 mM peptide solution was 10 times diluted, and 300 μl of the diluted solution was administered. In the case of the dose of 100 nmol/rat, a 1 mM peptide solution was 3 times diluted, and 300 μL of the diluted solution was administered. Each peptide was intravenously administered via the jugular vein cannula, and the systolic blood pressure, diastolic blood pressure, and heart rate were then measured.
The definition of the strength of hypotensive activity was the same as that of Example 3.

For experiment [3], the system named is anti-[N-Cys]-HC021-004 serum. Briefly: ELISA binding of anti-[N-Cys]-HC021-004 serum to coated peptides. Details: species or system rabbit. Particulars: absorbance at 405 nm, FIG. 3. An excerpt: Using [N-Cys]-HC021-004 (a peptide prepared by binding cysteine to the amino terminus of HC021-004) as an antigen, a rabbit was immunized with the antigen to produce antiserum (anti-[N-Cys]-HC021-004 serum).
The ability of this antiserum to bind to peptides having various types of sequences was examined using Protein Detector™ ELISA kit (AP; BluePhos System; manufactured by KPL). Reactions were all carried out at a room temperature. A 96-well immunoplate (maxi-coated; manufactured by Nunc) was coated (amount: 100 uL/well) with each peptide having a different type of sequence (concentration: 1 ng/100 uL) for 1 hour. Then, it was blocked with a 300 uL/well blocking solution for 1 hour. Thereafter, the serially diluted antiserum was added in an amount of 100 uL/well to the immunoplate, followed by reaction for 1 hour. After completion of washing, 500-times diluted Anti-rabbit IgG HRP Ab (manufactured by KPL) was added thereto in an amount of 100 uL/well, followed by reaction for 1 hour. After completion of washing, ABTS (manufactured by KPL) used as a substrate was added thereto in an amount of 100 uL/well. Thirty minutes later, the absorbance at 405 nm was measured.
A general note: ELISA stands for enzyme-linked immunosorbent assay.

Experiment [4] has as its system blood pressure of awake C57BL/6 mice. Description: Hypotensive activity on awake mice (tail cuff, systolic blood pressure). In kind it is in vivo, mouse. Particulars: caudal vein, 0.1 and 1 mg/kg, FIG. 2, listed as HC021-007. As to the method:
A C57BL/6 mice with a body weight of 30 to 40 g (Charles River Laboratories Japan, Inc.) were each placed in a retaining appliance of a non-preheating, non-invasive blood pressure monitor for mice and rats (MODEL MK-2000; Muromachi Kikai Co., Ltd.), and a cuff-pulse sensor was then attached to the root of the tail. After confirming that the blood pressure of each mouse had been stable, the mouse was subjected to the experiment.
A peptide solution was prepared by diluting each peptide with a normal saline, depending on the dose. In the case of the dose of 0.1 mg/kg, a 0.02 mg/mL peptide solution was prepared. In the case of the dose of 1 mg/kg, a 0.2 mg/mL peptide solution was prepared. The amount of the solution to be administered was set at 5 mL/kg. As a positive control, a human atrial natriuretic peptide (hANP) was used. As a negative control, a normal saline was used. Each peptide was administered via the caudal vein using a syringe with a 29G needle. Three and ten minutes after the administration, the systolic blood pressure and the heart rate were measured.

“Also recorded” adds a separate entry of the source. Where no end group is shown, it is not given here.

Consider “NRDLFFRRLQAYFK-amide (NRDLFFRRLQAYFK-NH2) [Compound 3]”, for which the “Hypotensive activity (dose/rat) 10 nmol” value is “+ (Activity observed (+): A decrease in systolic blood pressure is less than 20 mmHg.)” in experiment [1] (Table 1), “+ (Activity observed (+): A decrease in systolic blood pressure is less than 20 mmHg.)” in experiment [1] (Table 2), “+ (Activity observed (+): A decrease in systolic blood pressure is less than 20 mmHg.)” in experiment [1] (Table 3) and “−” in experiment [2]. Further, the “Hypotensive activity (dose/rat) 30 nmol” value in experiment [1] (Table 1) was “++ (Strong activity (++): A decrease in systolic blood pressure is 20 mmHg or more and less than 30 mmHg, or the time required for recovery is less than 5 minutes.)”; in experiment [1] (Table 2), “++ (Strong activity (++): A decrease in systolic blood pressure is 20 mmHg or more and less than 30 mmHg, or the time required for recovery is less than 5 minutes.)”; in experiment [1] (Table 3), “++ (Strong activity (++): A decrease in systolic blood pressure is 20 mmHg or more and less than 30 mmHg, or the time required for recovery is less than 5 minutes.)”; in experiment [2], “−”. For the same substance, the “Hypotensive activity (dose/rat) 100 nmol” value is “+++ (Extremely strong activity (+++): A decrease in systolic blood pressure is 30 mmHg or more, and the time required for recovery is 5 minutes or more.)” in experiment [1] (Table 1); “+++ (Extremely strong activity (+++): A decrease in systolic blood pressure is 30 mmHg or more, and the time required for recovery is 5 minutes or more.)” in experiment [1] (Table 2); “+++ (Extremely strong activity (+++): A decrease in systolic blood pressure is 30 mmHg or more, and the time required for recovery is 5 minutes or more.)” in experiment [1] (Table 3); “++ (Strong activity (++): A decrease in systolic blood pressure is 20 mmHg or more and less than 30 mmHg, or the time required for recovery is less than 5 minutes.)” in experiment [2]. The “dose dependence of hypotensive activity” value in experiment [1] is “enhanced their hypotensive activity in a dose-dependent manner”. Also, the figures for the “hypotensive activity (in words)” value in experiment [1] (listed as HC021-004) and in experiment [2] were “observed to have a hypotensive activity; also recorded: act to lower the blood pressure of rats” and “observed to have a hypotensive activity even on the awake rats”, respectively. Besides, the “binding of anti-[N-Cys]-HC021-004 serum to the peptide” value in experiment [3] is reported as “bound”.
For “ATVRNEDKWKPLNNPRNRDLFFRRLQAYFK-amide (C-terminal amide) [Compound 5]”, the “Hypotensive activity (dose/rat) 10 nmol” value in experiment [1] (Table 1) was “++ (Strong activity (++): A decrease in systolic blood pressure is 20 mmHg or more and less than 30 mmHg, or the time required for recovery is less than 5 minutes.)”; in experiment [1] (Table 2), “++ (Strong activity (++): A decrease in systolic blood pressure is 20 mmHg or more and less than 30 mmHg, or the time required for recovery is less than 5 minutes.)”; in experiment [1] (Table 3), “++ (Strong activity (++): A decrease in systolic blood pressure is 20 mmHg or more and less than 30 mmHg, or the time required for recovery is less than 5 minutes.)”; in experiment [2], “−”. The “Hypotensive activity (dose/rat) 30 nmol” value was “+++ (Extremely strong activity (+++): A decrease in systolic blood pressure is 30 mmHg or more, and the time required for recovery is 5 minutes or more.)” in experiment [1] (Table 1); “+++ (Extremely strong activity (+++): A decrease in systolic blood pressure is 30 mmHg or more, and the time required for recovery is 5 minutes or more.)” in experiment [1] (Table 2); “+++ (Extremely strong activity (+++): A decrease in systolic blood pressure is 30 mmHg or more, and the time required for recovery is 5 minutes or more.)” in experiment [1] (Table 3); “++ (Strong activity (++): A decrease in systolic blood pressure is 20 mmHg or more and less than 30 mmHg, or the time required for recovery is less than 5 minutes.)” in experiment [2]. Further, the “dose dependence of hypotensive activity” value in experiment [1] is “enhanced their hypotensive activity in a dose-dependent manner”. Further, the “hypotensive activity (in words)” value was “observed to have a hypotensive activity; also recorded: act to lower the blood pressure of rats” in experiment [1] (listed as HC021-007) and “observed to have a hypotensive activity even on the awake rats” in experiment [2]. The “Hypotensive activity (dose/rat) 100 nmol” value in experiment [2] is “+++ (Extremely strong activity (+++): A decrease in systolic blood pressure is 30 mmHg or more, and the time required for recovery is 5 minutes or more.)”. The “hypotensive activity (in words), change in systolic blood pressure” value in experiment [4] is on record as “exhibited a hypotensive activity even on the awake mice; also recorded: lower the blood pressure of awake mice”.
